“And” between values parts separate entries of the source, which are not always exact repeats. Identical values can stand only once.
Tested on: lepidoptera eggs (Spodoptera exigua)
Experiment: Direct contact overlay LC assay, caterpillar eggs
Conditions: for Times more active in the C13 blend than when tested alone: LC50 alone vs share of C13 LC50 (1% solution); for Direct AVG LC50 / Estimated LC50: mortality after five days; for Direct AVG LC50: diluent 0.25% Tween 81; for Estimated LC50: nested set, probit analysis, tested alone in 0.25% Tween 81
Text: The objective of this study was to evaluate the effects of synthetic blend-based composition C13 and each of its primary terpenes against lepidoptera eggs (Spodoptera exigua) in a laboratory assay that mimics contact activity on a leaf surface in the field. This was done by estimating the LC50 of the solvent/carrier (in this instance, vegetable oil) and the three primary terpenes alone, and comparing those values to the estimated LC50 of C13.
A requirement of the Probit model used to estimate the LC50 is that there should be a dose response with two rates above 50% mortality and two rates below 50%. Because of their solubility it was not possible to get this with a neat solution of oil or terpenes so, a series of preliminary assays were conducted to find a suitable carrier, testing solutions compatible with the terpenes and carrier. To achieve a stable emulsion of the individual terpenes that could be pipetted across a suitable range of concentrations, it was decided to use a universal diluent containing 0.25% Tween™ 81.
Stock solutions were transferred to deep, 96-well, micro-titre plates. 1.4 ml of each stock solution was placed in the 2 ml wells that ran across the top row of the deep well plate (Row A; wells 1-12, see Table 15). A digital 12-channel Matrix pipette was then used to add 700 uls of 0.25% Tween 81 in deionized water (DI H2O) to the remaining wells (Rows B-H; 1-12). The 12 channel pipette was used to perform serial dilutions by mixing, aspirating, and then dispensing 700 ul of each stock solution from row A into the adjoining 700 ul of diluent in row B. This process was repeated seven times to give a final concentration of eight, 50% serially diluted samples containing 700 μl.
An eight channel Matrix pipette was then used to mix, aspirate and distribute all eight of the serial dilutions from the deep well plate to a labeled 96 well plate containing a wheat germ/casein-based artificial diet. Aliquots containing 240 μl of each dilution were aspirated and 40 μl were dispensed into to six wells across the surface of the micro-titre plate containing 200 μl of artificial diet/well. Two samples were tested on every plate with the one sample in rows A through H—columns 1 to 6, and the second sample in wells A through H columns 7 to 12. The last two samples in each assay contain the Javelin standard and 0.25% Tween in DI water as the untreated controls.
The samples were then dried under forced air at room temperature. This deposits a thin film of the treatment on the surface of the diet much the same way as applying a spray solution to a leaf surface. Once the plates were dried, then eggs were put in each well using a Matrix pipette with 5-10 temporally synchronized caterpillar eggs suspended in 20 μl of a 0.1% agar solution. This rehydrates the surface film and then the egg:agar was dried under forced air, a second time. Once the agar solution was dry the plates were heat sealed with a perforated Mylar film that seals the insects in the well, but allows for gas exchange. The plates were incubated at 28° C. on a 16:8 light:dark cycle. After five days the numbers of live insects in each row were recorded. Mortality was recorded as the number dead over the number treated and expressed as control corrected percent mortality.

| Structure (SMILES) | Times more active in the C13 blend than when tested alone | Direct AVG LC50 | Estimated LC50 |
| --- | --- | --- | --- |
| C=C(C)[C@H]1CC=C(C)CC1 [d-limonene] | 64 X | 2.093% | 1.9% and 1.905% |
| Cc1ccc(C(C)C)cc1 [p-cymene] | 72 X | 1.539% | 2.68% and 2.682% |
| CC1=CC=C(C(C)C)CC1 [α-terpinene] | – | 4.336% | 4.77% and 4.776% |
